For data set [1], the target named is Tyrosine-protein kinase Fyn (Homo sapiens) (UniProt P06241). Kind of data set: Inhibition of Fyn assessed as activity remaining at 10 uM.
The target in data set [2] is Tyrosine-protein kinase CSK (Homo sapiens) (UniProt P41240). The data set is described as follows: Inhibition of CSK assessed as activity remaining at 10 uM.
The target of data set [3] is Protein-tyrosine kinase 6 (Homo sapiens) (UniProt Q13882). Kind of data set: Inhibition of BRK assessed as activity remaining at 10 uM.
Chain of Protein-tyrosine kinase 6 (Homo sapiens) (Q13882 whole entry, looked up): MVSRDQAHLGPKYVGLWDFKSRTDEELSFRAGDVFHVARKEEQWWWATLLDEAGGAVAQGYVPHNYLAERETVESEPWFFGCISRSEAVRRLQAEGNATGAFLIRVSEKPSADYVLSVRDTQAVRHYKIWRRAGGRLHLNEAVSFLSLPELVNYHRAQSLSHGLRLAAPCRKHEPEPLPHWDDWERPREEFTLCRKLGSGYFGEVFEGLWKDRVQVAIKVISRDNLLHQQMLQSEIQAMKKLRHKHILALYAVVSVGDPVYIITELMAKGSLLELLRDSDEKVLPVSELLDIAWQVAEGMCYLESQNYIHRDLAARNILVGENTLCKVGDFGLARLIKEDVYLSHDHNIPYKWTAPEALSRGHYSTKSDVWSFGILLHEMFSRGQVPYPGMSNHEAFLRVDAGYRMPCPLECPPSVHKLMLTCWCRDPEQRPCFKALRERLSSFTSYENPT
The target in data set [4] is Insulin-like growth factor 1 receptor (Homo sapiens) (UniProt P08069). Kind of data set: Inhibition of IGF1R assessed as activity remaining at 10 uM.
Data set [5] addresses T1, Interleukin-1 receptor-associated kinase 4 (Homo sapiens) (UniProt Q9NWZ3).
T1 sequence (whole entry): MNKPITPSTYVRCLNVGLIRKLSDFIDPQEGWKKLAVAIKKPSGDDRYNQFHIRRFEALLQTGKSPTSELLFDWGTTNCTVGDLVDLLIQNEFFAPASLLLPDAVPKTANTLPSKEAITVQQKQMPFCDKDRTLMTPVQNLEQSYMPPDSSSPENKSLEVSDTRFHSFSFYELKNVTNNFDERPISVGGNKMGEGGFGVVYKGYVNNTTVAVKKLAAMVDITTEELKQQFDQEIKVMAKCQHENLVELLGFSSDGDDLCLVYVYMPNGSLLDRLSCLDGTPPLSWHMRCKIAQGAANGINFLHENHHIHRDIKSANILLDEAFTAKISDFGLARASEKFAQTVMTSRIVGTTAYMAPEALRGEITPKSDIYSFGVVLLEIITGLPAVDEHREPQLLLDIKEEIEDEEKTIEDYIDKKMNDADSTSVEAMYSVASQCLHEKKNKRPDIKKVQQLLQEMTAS
Kind of data set: Inhibition of IRAK4 assessed as activity remaining at 10 uM.

The target in data set [6] is Receptor-type tyrosine-protein kinase FLT3 (Homo sapiens) (UniProt P36888). Kind of data set: Inhibition of Flt3 assessed as activity remaining at 10 uM.
Chain of Receptor-type tyrosine-protein kinase FLT3 (Homo sapiens) (P36888 whole entry): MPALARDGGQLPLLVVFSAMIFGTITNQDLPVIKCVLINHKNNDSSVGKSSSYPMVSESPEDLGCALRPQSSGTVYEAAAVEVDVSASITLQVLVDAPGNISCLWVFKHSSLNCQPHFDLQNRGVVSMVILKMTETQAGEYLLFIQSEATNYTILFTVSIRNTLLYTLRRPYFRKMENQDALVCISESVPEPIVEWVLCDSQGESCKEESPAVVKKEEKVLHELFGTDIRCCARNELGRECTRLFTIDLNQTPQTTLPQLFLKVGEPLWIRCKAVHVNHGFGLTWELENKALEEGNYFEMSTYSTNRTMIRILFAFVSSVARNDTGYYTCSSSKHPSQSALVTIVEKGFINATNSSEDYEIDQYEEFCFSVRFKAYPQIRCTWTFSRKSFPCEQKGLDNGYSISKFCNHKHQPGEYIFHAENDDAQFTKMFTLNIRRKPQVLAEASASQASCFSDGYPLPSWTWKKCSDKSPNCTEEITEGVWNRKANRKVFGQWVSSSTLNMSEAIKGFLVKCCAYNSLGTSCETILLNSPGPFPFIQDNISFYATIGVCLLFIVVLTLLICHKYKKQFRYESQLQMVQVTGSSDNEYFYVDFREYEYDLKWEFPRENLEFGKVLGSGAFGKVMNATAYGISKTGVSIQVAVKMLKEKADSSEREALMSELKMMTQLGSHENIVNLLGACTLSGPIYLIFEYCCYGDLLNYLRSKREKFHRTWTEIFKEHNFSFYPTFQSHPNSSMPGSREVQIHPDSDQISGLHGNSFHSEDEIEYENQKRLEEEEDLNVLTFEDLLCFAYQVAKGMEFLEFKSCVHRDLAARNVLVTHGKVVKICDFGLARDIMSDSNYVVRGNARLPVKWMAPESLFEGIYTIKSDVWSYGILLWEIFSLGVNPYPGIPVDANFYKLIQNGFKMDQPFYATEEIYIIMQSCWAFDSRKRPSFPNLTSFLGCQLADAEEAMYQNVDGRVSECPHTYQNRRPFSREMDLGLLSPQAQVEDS
Data set [7] is described as follows: Metabolic stability in rat hepatocytes assessed as compound remaining after 60 mins. It is filed as ADME, cell-based, Hepatocyte. The note with it: read-out: Stability.
Data set [8] deals with Glycogen synthase kinase-3 alpha (Homo sapiens, UniProt P49840). Kind of data set: Inhibition of GSK3alpha.
Chain of Glycogen synthase kinase-3 alpha (P49840 whole entry): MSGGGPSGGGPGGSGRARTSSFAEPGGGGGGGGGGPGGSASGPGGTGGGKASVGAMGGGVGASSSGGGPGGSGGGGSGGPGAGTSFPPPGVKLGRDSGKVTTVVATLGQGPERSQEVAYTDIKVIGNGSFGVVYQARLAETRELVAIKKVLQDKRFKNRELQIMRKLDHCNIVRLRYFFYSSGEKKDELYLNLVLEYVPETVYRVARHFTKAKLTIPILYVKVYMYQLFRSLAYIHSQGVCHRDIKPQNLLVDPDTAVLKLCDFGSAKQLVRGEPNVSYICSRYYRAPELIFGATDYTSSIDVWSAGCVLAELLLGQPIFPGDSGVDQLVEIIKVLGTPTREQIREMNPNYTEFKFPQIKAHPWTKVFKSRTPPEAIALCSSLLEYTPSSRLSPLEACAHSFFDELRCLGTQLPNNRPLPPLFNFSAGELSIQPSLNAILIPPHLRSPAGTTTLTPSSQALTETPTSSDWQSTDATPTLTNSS
Data set [9] has as its target Tyrosine-protein kinase BTK (Homo sapiens) (UniProt Q06187). The data set is described as follows: Inhibition of BTK assessed as activity remaining at 10 uM.
The target of data set [10] is Serine/threonine-protein kinase pim-2 (Homo sapiens) (UniProt Q9P1W9). The data set is described as follows: Inhibition of Pim2 assessed as activity remaining at 10 uM.
Chain of Serine/threonine-protein kinase pim-2 (Homo sapiens) (Q9P1W9 whole entry, looked up): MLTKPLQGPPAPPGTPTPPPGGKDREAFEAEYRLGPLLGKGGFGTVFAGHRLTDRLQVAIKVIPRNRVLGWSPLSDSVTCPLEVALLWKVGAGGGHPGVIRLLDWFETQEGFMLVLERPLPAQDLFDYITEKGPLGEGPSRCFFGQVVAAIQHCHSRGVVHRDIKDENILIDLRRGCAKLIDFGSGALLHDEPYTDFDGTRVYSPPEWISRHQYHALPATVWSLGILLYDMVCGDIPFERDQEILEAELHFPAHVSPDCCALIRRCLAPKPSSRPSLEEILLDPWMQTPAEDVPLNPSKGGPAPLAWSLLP
Data set [11] concerns the target T2, Serine/threonine-protein kinase Nek2 (Homo sapiens) (UniProt P51955).
T2 sequence (whole entry): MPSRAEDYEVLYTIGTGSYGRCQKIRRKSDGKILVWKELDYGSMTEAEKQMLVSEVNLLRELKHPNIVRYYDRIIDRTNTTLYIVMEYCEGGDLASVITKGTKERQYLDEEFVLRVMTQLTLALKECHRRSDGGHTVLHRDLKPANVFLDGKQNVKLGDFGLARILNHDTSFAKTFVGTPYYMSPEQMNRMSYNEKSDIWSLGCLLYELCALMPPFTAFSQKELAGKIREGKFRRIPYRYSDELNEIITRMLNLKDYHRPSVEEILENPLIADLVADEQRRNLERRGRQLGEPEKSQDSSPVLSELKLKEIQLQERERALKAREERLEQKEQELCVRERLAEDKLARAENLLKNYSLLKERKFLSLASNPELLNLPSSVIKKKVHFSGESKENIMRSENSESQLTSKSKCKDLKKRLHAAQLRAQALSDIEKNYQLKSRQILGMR
Kind of data set: Inhibition of NEK2 assessed as activity remaining at 10 uM.

A short description of data set [12]: Inhibition of AMPK assessed as activity remaining at 10 uM.
Data set [13] has as its target MAP kinase-activated protein kinase 2 (Homo sapiens) (UniProt P49137). The data set is described as follows: Inhibition of MAPKAP-K2 assessed as activity remaining at 10 uM.
In data set [14] the target is Tyrosine-protein kinase Yes (Homo sapiens) (UniProt P07947). The data set is described as follows: Inhibition of Yes assessed as activity remaining at 10 uM.
Chain of Tyrosine-protein kinase Yes (Homo sapiens) (P07947 2-543 limits assumed): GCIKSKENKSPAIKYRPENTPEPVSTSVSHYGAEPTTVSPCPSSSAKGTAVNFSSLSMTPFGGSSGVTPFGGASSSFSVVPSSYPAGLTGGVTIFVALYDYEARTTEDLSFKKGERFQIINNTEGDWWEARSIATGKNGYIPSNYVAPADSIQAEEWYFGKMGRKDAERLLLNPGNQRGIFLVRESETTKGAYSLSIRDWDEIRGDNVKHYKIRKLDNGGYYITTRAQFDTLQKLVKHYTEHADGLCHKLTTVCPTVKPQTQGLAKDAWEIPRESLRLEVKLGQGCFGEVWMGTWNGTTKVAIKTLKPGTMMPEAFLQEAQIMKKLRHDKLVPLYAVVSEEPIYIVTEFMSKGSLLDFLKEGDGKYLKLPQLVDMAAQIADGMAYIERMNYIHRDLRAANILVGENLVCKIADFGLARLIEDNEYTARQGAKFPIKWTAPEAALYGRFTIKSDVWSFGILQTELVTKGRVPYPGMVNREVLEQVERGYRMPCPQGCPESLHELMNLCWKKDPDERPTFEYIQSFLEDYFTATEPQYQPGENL
For data set [15], the target named is Serine/threonine-protein kinase D2 (Homo sapiens) (UniProt Q9BZL6). Kind of data set: Inhibition of PKD2 assessed as activity remaining at 10 uM.
Data set [16] has as its target Tyrosine-protein kinase ZAP-70 (Homo sapiens) (UniProt P43403). Kind of data set: Inhibition of ZAP70 assessed as activity remaining at 10 uM.
In data set [17] the target is Tyrosine-protein kinase Lyn (Homo sapiens) (UniProt P07948). The data set is described as follows: Inhibition of LYN-A assessed as activity remaining at 10 uM.
Data set [18] concerns the target Serine/threonine-protein kinase mTOR (Homo sapiens, UniProt P42345). Kind of data set: Inhibition of mTOR assessed as activity remaining at 10 uM.
In data set [19] the target is Serine/threonine-protein kinase PLK1 (Homo sapiens) (UniProt P53350). The data set is described as follows: Inhibition of Plk1 assessed as activity remaining at 10 uM.
For data set [20], the target named is Macrophage-stimulating protein receptor (Homo sapiens) (UniProt Q04912). Kind of data set: Inhibition of Ron assessed as activity remaining at 10 uM.
Data set [21] deals with Tyrosine-protein kinase Lck (Homo sapiens) (UniProt P06239). The data set is described as follows: Inhibition of Lck assessed as activity remaining at 10 uM.
Data set [22] deals with Tyrosine-protein kinase JAK2 (Homo sapiens) (UniProt O60674). The data set is described as follows: Inhibition of JAK2 assessed as activity remaining at 10 uM.
Data set [23] addresses MAP kinase-activated protein kinase 3 (Homo sapiens) (UniProt Q16644). Kind of data set: Inhibition of MAPKAP-K3 assessed as activity remaining at 10 uM.

The values that follow come from ChEMBL document CHEMBL1944561, “Discovery and SAR exploration of a novel series of imidazo[4,5-b]pyrazin-2-ones as potent and selective mTOR kinase inhibitors” (Bioorg Med Chem Lett, 2011).

Each structure is given as a SMILES string.

Chain of MAP kinase-activated protein kinase 2 (Homo sapiens) (P49137 whole entry, looked up): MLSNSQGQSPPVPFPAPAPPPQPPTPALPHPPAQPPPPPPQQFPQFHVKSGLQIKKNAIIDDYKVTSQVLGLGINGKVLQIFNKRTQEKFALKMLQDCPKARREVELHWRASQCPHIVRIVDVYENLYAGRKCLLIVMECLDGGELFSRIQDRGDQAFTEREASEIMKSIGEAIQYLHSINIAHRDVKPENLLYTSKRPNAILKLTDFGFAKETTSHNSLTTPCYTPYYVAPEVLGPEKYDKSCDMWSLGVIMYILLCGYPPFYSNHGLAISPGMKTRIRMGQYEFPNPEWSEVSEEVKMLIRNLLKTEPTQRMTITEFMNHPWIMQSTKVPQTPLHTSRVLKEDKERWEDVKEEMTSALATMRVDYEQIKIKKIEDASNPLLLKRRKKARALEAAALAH
Chain of Tyrosine-protein kinase Fyn (Homo sapiens) (P06241 2-537 limits assumed): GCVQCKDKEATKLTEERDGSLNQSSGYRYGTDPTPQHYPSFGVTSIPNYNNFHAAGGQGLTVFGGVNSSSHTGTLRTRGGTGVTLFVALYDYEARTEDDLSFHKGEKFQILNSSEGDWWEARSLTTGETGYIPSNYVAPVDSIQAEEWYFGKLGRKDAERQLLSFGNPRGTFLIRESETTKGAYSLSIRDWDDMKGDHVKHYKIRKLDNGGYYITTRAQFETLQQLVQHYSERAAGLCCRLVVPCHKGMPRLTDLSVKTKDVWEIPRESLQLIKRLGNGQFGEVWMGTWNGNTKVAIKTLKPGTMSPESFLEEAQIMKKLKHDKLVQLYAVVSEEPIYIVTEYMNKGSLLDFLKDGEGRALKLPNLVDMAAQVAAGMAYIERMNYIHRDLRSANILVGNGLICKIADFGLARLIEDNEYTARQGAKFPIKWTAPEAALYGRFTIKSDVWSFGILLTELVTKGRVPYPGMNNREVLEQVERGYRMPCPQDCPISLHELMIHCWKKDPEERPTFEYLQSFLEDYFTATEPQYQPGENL
Chain of Tyrosine-protein kinase CSK (Homo sapiens) (P41240 2-450 limits assumed): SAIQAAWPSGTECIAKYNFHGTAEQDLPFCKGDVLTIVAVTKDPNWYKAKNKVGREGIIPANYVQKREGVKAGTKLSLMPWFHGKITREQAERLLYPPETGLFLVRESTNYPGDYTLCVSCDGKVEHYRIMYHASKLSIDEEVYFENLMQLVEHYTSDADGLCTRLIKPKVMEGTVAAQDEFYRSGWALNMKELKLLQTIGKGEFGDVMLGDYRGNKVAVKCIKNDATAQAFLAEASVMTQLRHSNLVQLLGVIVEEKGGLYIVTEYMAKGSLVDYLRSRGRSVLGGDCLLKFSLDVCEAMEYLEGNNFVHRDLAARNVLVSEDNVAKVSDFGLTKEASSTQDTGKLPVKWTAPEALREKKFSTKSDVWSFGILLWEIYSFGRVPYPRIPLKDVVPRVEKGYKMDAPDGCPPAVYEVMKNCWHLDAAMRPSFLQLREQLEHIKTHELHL
Chain of Tyrosine-protein kinase BTK (Homo sapiens) (Q06187 whole entry): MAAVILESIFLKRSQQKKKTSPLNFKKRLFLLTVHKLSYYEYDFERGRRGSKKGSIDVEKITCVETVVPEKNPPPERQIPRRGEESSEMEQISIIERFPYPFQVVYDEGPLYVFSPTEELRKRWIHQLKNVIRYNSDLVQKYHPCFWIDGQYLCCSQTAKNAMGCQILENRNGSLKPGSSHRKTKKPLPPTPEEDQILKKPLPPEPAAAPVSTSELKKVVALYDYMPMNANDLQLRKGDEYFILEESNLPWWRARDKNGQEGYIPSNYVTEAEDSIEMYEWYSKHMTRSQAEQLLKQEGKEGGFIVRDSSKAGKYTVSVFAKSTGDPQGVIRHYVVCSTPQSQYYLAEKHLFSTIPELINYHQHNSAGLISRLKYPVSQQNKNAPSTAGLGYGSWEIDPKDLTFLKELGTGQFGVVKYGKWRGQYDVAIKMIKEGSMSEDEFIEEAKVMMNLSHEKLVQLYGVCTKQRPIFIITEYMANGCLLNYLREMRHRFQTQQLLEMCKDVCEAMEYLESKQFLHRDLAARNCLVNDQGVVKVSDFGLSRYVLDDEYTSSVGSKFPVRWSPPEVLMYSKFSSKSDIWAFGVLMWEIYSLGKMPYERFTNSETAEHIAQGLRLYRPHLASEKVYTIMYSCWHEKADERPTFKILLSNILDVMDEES

On to `CC(C)(O)c1ccc(-c2cnc3[nH]c(=O)n(CC4CCCCC4)c3n2)cc1`, for which the Activity in [1] turned out to be 73%; in [2] it was 86%; in [3], 92%; in data set [4] it was 91%; in [5], 87%; in data set [6] it was 71%. In addition, the Activity turned out to be 84% in data set [9]; 91% in data set [10]; 98% in data set [11]; 89% in [12]; 99% in data set [13]; 74% in data set [14]. Besides, the remaining at 1 h in data set [7] is 65%. The same compound displayed an IC50 in data set [8] of 600 nM.

As for `O=c1[nH]c2ncc(-c3ccc(-c4nc[nH]n4)cc3)nc2n1CC1CCOCC1`, the Activity came to 102% in data set [1]; 96% in data set [2]; 94% in data set [15]; 99% in data set [16]; 93% in data set [3]; 95% in data set [4]. In addition, the Activity stood at 97% in data set [5]; 55% in data set [6]; 96% in [17]; 90% in [9]; 0% in data set [18]; 95% in data set [19]. Further, the Activity in data set [10] amounted to 93%; in data set [20] it was 95%; in [11] it was 103%; in data set [21], 86%; in data set [12] it was 101%; in data set [22] it was 98%. The Activity in data set [23] was 94%; in data set [13], 93%; in [14] it was 87%.

As for `O=c1[nH]c2ncc(-c3ccc4[nH]cnc4c3)nc2n1CC1CCCCC1`, the Activity was 67% in data set [1]; 90% in data set [2]; 82% in data set [3]; 96% in [4]; 112% in data set [5]; 46% in [6]. Besides, the Activity in data set [9] was 88%; in data set [10] it was 101%; in [11], 98%; in data set [12], 76%; in data set [13], 89%; in data set [14], 73%. In addition, in data set [8], the IC50 was determined as 990 nM.
